For one assay, the system named is interferon. The assay is described as follows: Interferon induction in mice. It is filed as in vivo. Particulars: mouse serum. In a few lines:
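Interferon titres expressed as α/β reference units/mL relative to mouse MU-1-IF standard, "<" denoting undetectable. Pooled serum came from mouse groups bled at 1, 2 or 4 h, frozen at −70° C, analysed like human-cell samples.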

For assay [1], the system named is vesicular stomatitis virus (VSV). Briefly: microbe, parasite or virus in culture. It is filed as cell-based. Particulars: for VSV Yield Inhibition: log10 (control VSV yield/experimental VSV yield); for log reduction at 0.1 µg/mL / log reduction at 0.5 µg/mL / log reduction at 1 µg/mL: Vesicular stomatitis virus, read-out: VSV Yield Inhibition.
The test system of the next assay is interferon-α. Briefly: Interferon-α induction in human cells, PBM. It is filed as cell-based. Particulars: 24 hours.

A value given as a limit tells only on which side of the number the result lay.

Consider six compounds from patent US6465654B2, “Process for preparing 1-substituted, 2-substituted 1H-imidazo[4, 5-c]quinoline-4-amines” (3M Innovative Properties Company, priority 1991, dated 2002).

In the case of `CCCCC(OC)c1nc2c(N)nc3ccccc3c2n1CC(C)C` (stereo not shown) [Example 61, 2-(1-Methoxypentyl)-1-(2-methylproyl) -1H-imidazo[4,5-c]quinolin-4-amine], the “Interferon induction in mice” value was below 56 Reference Units/mL with interferon (oral 0.3 mg/kg, 1 hr); below 56 Reference Units/mL with interferon (oral 0.3 mg/kg, 2 hr); below 56 Reference Units/mL with interferon (oral 0.3 mg/kg, 4 hr); 120 Reference Units/mL in the assay on interferon (oral 1 mg/kg, 1 hr); 220 Reference Units/mL with interferon (oral 1 mg/kg, 2 hr); 97 Reference Units/mL in the assay on interferon (oral 1 mg/kg, 4 hr). In addition, the “Interferon induction in mice” value with interferon (oral 3 mg/kg, 1 hr) is on record as 290 Reference Units/mL; in the assay with interferon (oral 3 mg/kg, 2 hr), 500 Reference Units/mL; in the assay with interferon (oral 3 mg/kg, 4 hr), 120 Reference Units/mL; in the assay on interferon (oral 10 mg/kg, 1 hr), 290 Reference Units/mL; in the assay on interferon (oral 10 mg/kg, 2 hr), 1100 Reference Units/mL; in the assay on interferon (oral 10 mg/kg, 4 hr), 160 Reference Units/mL. Further, the “VSV Yield Inhibition” value in assay [1] (dose concentration 0.1 μg/mL) was 5 log10; in assay [1] (dose concentration 0.5 μg/mL), 7 log10; in assay [1] (dose concentration 1.0 μg/mL), 5 log10. In addition, the Interferon-α induction in the assay on interferon-α (dose concentration 0.10 μg/mL) is 64 α Reference Units/mL; in the assay with interferon-α (dose concentration 0.50 μg/mL), 1300 α Reference Units/mL; in the assay on interferon-α (dose concentration 1.0 μg/mL), 330 α Reference Units/mL; in the assay with interferon-α (dose concentration 5.0 μg/mL), 330 α Reference Units/mL.
Regarding `COC(C)c1nc2c(N)nc3ccccc3c2n1CC(C)C` (stereo not shown) [Example 66, 2-(1-Methoxyethyl)-1-(2-methylpropyl)-1H-imidazo[4,5-c]quinolin-4-amine], the “Interferon induction in mice” value with interferon (oral 0.3 mg/kg, 1 hr) was below 56 Reference Units/mL; with interferon (oral 0.3 mg/kg, 2 hr), below 56 Reference Units/mL; in the assay with interferon (oral 0.3 mg/kg, 4 hr) it was below 56 Reference Units/mL; in the assay with interferon (oral 1 mg/kg, 1 hr), below 56 Reference Units/mL; in the assay with interferon (oral 1 mg/kg, 2 hr), below 56 Reference Units/mL; in the assay on interferon (oral 1 mg/kg, 4 hr), below 56 Reference Units/mL. Moreover, the “Interferon induction in mice” value with interferon (oral 3 mg/kg, 1 hr) is given as below 74 Reference Units/mL; in the assay with interferon (oral 3 mg/kg, 2 hr), below 120 Reference Units/mL; in the assay with interferon (oral 3 mg/kg, 4 hr) it was below 56 Reference Units/mL; in the assay with interferon (oral 10 mg/kg, 1 hr), 1100 Reference Units/mL; in the assay on interferon (oral 10 mg/kg, 2 hr), 2600 Reference Units/mL; with interferon (oral 10 mg/kg, 4 hr), 380 Reference Units/mL. Besides, the log reduction at 0.1 µg/mL in assay [1] was found to be 2. Further, the log reduction at 0.5 µg/mL in assay [1] was 2. In addition, the log reduction at 1 µg/mL in assay [1] was 3. The Interferon-α induction in the assay with interferon-α (dose concentration 0.10 μg/mL) is listed as <5 α Reference Units/mL; in the assay with interferon-α (dose concentration 0.50 μg/mL) it was <5 α Reference Units/mL; in the assay with interferon-α (dose concentration 1.0 μg/mL), 1000 α Reference Units/mL; in the assay on interferon-α (dose concentration 5.0 μg/mL) it was 1000 α Reference Units/mL.
Consider `CCOCc1nc2c(N)nc3cc(Cl)ccc3c2n1CC(C)(C)O` [Example 85, 4-Amino-7-chloro-α,α-dimethyl-2-ethoxymethyl-1H-imidazo[4,5-c]quinoline-1-ethanol], for which the “Interferon induction in mice” value is 670 Reference Units/mL in the assay with interferon (oral 0.3 mg/kg, 1 hr); 670 Reference Units/mL in the assay with interferon (oral 0.3 mg/kg, 2 hr); below 250 Reference Units/mL in the assay on interferon (oral 0.3 mg/kg, 4 hr); “˜980 Reference Units/mL” with interferon (oral 1 mg/kg, 1 hr); 3900 Reference Units/mL with interferon (oral 1 mg/kg, 2 hr); “≦330 Reference Units/mL” in the assay with interferon (oral 1 mg/kg, 4 hr). Besides, the “Interferon induction in mice” value is listed as 1500 Reference Units/mL in the assay with interferon (oral 3 mg/kg, 1 hr); 4300 Reference Units/mL with interferon (oral 3 mg/kg, 2 hr); “˜430 Reference Units/mL” in the assay with interferon (oral 3 mg/kg, 4 hr); 2200 Reference Units/mL in the assay with interferon (oral 10 mg/kg, 1 hr); 5700 Reference Units/mL in the assay with interferon (oral 10 mg/kg, 2 hr); “˜570 Reference Units/mL” in the assay on interferon (oral 10 mg/kg, 4 hr). Besides, the log reduction at 0.1 µg/mL in assay [1] turned out to be 5. For the same compound, in assay [1], the log reduction at 0.5 µg/mL turned out to be 5. The log reduction at 1 µg/mL in assay [1] was found to be 5. For the same compound, the Interferon-α induction with interferon-α (dose concentration 0.10 μg/mL) is on record as 86 α Reference Units/mL; with interferon-α (dose concentration 0.50 μg/mL), 100 α Reference Units/mL; in the assay on interferon-α (dose concentration 1.0 μg/mL) it was 220 α Reference Units/mL; in the assay on interferon-α (dose concentration 5.0 μg/mL), 230 α Reference Units/mL.
`CC(C)(O)Cn1c(CO)nc2c(N)nc3ccccc3c21` [Example 90, 4-Amino-α,α-dimethyl-2-hydroxymethyl-1H-imidazo[4,5-c]quinoline-1-ethanol]: the “Interferon induction in mice” value is on record as below 74 Reference Units/mL in the assay with interferon (oral 0.3 mg/kg, 1 hr); below 74 Reference Units/mL in the assay with interferon (oral 0.3 mg/kg, 2 hr); below 74 Reference Units/mL in the assay with interferon (oral 0.3 mg/kg, 4 hr); below 74 Reference Units/mL in the assay with interferon (oral 1 mg/kg, 1 hr); below 74 Reference Units/mL in the assay on interferon (oral 1 mg/kg, 2 hr); below 74 Reference Units/mL with interferon (oral 1 mg/kg, 4 hr). Also, the “Interferon induction in mice” value in the assay on interferon (oral 3 mg/kg, 1 hr) is “≦130 Reference Units/mL”; with interferon (oral 3 mg/kg, 2 hr), 570 Reference Units/mL; with interferon (oral 3 mg/kg, 4 hr) it was “≦74 Reference Units/mL”; in the assay on interferon (oral 10 mg/kg, 1 hr), 750 Reference Units/mL; in the assay on interferon (oral 10 mg/kg, 2 hr) it was 3500 Reference Units/mL; with interferon (oral 10 mg/kg, 4 hr) it was “≦140 Reference Units/mL”. For the same compound, the log reduction at 0.1 µg/mL in assay [1] is 5. The log reduction at 0.5 µg/mL in assay [1] is 4. Besides, the log reduction at 1 µg/mL in assay [1] was determined as 5. The Interferon-α induction in the assay with interferon-α (dose concentration 0.01 μg/mL) is <6.4 α Reference Units/mL; with interferon-α (dose concentration 0.05 μg/mL) it was 640 α Reference Units/mL; with interferon-α (dose concentration 0.10 μg/mL), 3000 α Reference Units/mL; in the assay on interferon-α (dose concentration 0.50 μg/mL), 640 α Reference Units/mL; with interferon-α (dose concentration 1.0 μg/mL), 420 α Reference Units/mL; with interferon-α (dose concentration 5.0 μg/mL), 580 α Reference Units/mL.
Regarding `CCOCc1nc2c(N)nc3ccccc3c2n1Cc1ccccc1` [Example 93, 2-Ethoxymethyl-1-phenylmethyl-1H-imidazo[4,5-c]quinolin-4-amine], the “Interferon induction in mice” value with interferon (oral 0.3 mg/kg, 1 hr) is listed as 400 Reference Units/mL; with interferon (oral 0.3 mg/kg, 2 hr), 360 Reference Units/mL; in the assay on interferon (oral 0.3 mg/kg, 4 hr), “≦150 Reference Units/mL”; with interferon (oral 1 mg/kg, 1 hr) it was 660 Reference Units/mL; in the assay with interferon (oral 1 mg/kg, 2 hr) it was 1500 Reference Units/mL; in the assay with interferon (oral 1 mg/kg, 4 hr) it was 340 Reference Units/mL. For the same compound, the “Interferon induction in mice” value with interferon (oral 3 mg/kg, 1 hr) is 1300 Reference Units/mL; with interferon (oral 3 mg/kg, 2 hr) it was 1300 Reference Units/mL; with interferon (oral 3 mg/kg, 4 hr), “˜260 Reference Units/mL”; in the assay with interferon (oral 10 mg/kg, 1 hr), 2100 Reference Units/mL; in the assay on interferon (oral 10 mg/kg, 2 hr) it was 2900 Reference Units/mL; in the assay on interferon (oral 10 mg/kg, 4 hr) it was 630 Reference Units/mL. The log reduction at 0.1 µg/mL in assay [1] is 0. In addition, the log reduction at 0.5 µg/mL in assay [1] was 5. Besides, the log reduction at 1 µg/mL in assay [1] is 5. In addition, the Interferon-α induction in the assay with interferon-α (dose concentration 0.10 μg/mL) is 850 α Reference Units/mL; with interferon-α (dose concentration 0.50 μg/mL), 280 α Reference Units/mL; with interferon-α (dose concentration 1.0 μg/mL), 300 α Reference Units/mL; in the assay on interferon-α (dose concentration 5.0 μg/mL) it was 300 α Reference Units/mL.
As to `COCc1nc2c(N)nc3ccccc3c2n1CC(C)(C)O` [Example 96, 4-Amino-α,α-dimethyl-2-methoxymethyl-1H-imidazo[4,5-c]quinoline-1-ethanol], the “Interferon induction in mice” value stood at 2900 Reference Units/mL with interferon (oral 0.3 mg/kg, 1 hr); 3400 Reference Units/mL with interferon (oral 0.3 mg/kg, 2 hr); 620 Reference Units/mL in the assay with interferon (oral 0.3 mg/kg, 4 hr); 3200 Reference Units/mL with interferon (oral 1 mg/kg, 1 hr); 5000 Reference Units/mL in the assay on interferon (oral 1 mg/kg, 2 hr); 1100 Reference Units/mL with interferon (oral 1 mg/kg, 4 hr). In addition, the “Interferon induction in mice” value in the assay on interferon (oral 3 mg/kg, 1 hr) was 3000 Reference Units/mL; in the assay on interferon (oral 3 mg/kg, 2 hr), 10000 Reference Units/mL; in the assay on interferon (oral 3 mg/kg, 4 hr) it was 960 Reference Units/mL; in the assay with interferon (oral 10 mg/kg, 1 hr), 2900 Reference Units/mL; with interferon (oral 10 mg/kg, 2 hr), 4700 Reference Units/mL; in the assay on interferon (oral 10 mg/kg, 4 hr), “˜350 Reference Units/mL”. The log reduction at 0.1 µg/mL in assay [1] was 6. In assay [1], the log reduction at 0.5 µg/mL turned out to be 5. Moreover, the log reduction at 1 µg/mL in assay [1] came out at 5. In addition, the Interferon-α induction in the assay with interferon-α (dose concentration 0.01 μg/mL) is on record as <6.4 α Reference Units/mL; in the assay on interferon-α (dose concentration 0.05 μg/mL) it was 44 α Reference Units/mL; in the assay with interferon-α (dose concentration 0.10 μg/mL) it was 1200 α Reference Units/mL; in the assay on interferon-α (dose concentration 0.50 μg/mL), 460 α Reference Units/mL; with interferon-α (dose concentration 1.0 μg/mL), 1000 α Reference Units/mL; in the assay with interferon-α (dose concentration 5.0 μg/mL), 900 α Reference Units/mL.
